Experiment [1] concerns the target T1, VhChiP (chitooligosaccharide-specific porin, chitoporin) (Vibrio harveyi, UniProt L0RVU0).
T1 sequence (L0RVU0 26-375): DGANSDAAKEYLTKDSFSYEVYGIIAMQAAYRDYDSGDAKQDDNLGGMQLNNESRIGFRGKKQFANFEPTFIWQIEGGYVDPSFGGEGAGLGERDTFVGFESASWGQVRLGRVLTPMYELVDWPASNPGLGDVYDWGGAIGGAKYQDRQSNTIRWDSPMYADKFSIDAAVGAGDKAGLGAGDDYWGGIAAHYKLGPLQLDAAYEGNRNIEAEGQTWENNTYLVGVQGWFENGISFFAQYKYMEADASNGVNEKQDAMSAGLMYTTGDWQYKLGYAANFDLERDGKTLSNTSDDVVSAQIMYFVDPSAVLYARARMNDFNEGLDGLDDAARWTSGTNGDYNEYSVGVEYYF
Nature of the experiment: intrinsic tryptophan fluorescence titration. The format is binding. As to conditions: 20 mM phosphate pH 7.4, 0.2% LDAO, 25 °C; one-site fit.

Experiment [2] has as its target T1, VhChiP (chitooligosaccharide-specific porin, chitoporin). Nature of the experiment: biochemical. The note with it: read-out: WT ΔTm (CD).
For experiment [3] the target is unchanged. Nature of the experiment: biochemical. As to conditions: read-out: WT ΔTm (fluorescence).

This passage reports K and ΔTm results from publication doi:10.1101/2020.06.24.169508v1 (biorxiv, 2020).

Each structure is given as a SMILES string.

The term ΔTm denotes the shift of the melting midpoint relative to a reference.

As for `CC(=O)N[C@H]1[C@H](O[C@H]2[C@H](O)[C@@H](NC(C)=O)C(O)O[C@@H]2CO)O[C@H](CO)[C@@H](O)[C@@H]1O` (stereo partly shown) [Chitobiose], the K in experiment [1] is given as 0.1 ± 0.04 ×10^5 M^-1. Besides, the ΔTm at 100 µM in experiment [2] was determined as 2.1 °C. For the same molecule, the ΔTm at 1000 µM in experiment [3] worked out at 4 °C.
In the case of `CC(=O)N[C@H]1[C@H](O[C@H]2[C@H](O)[C@@H](NC(C)=O)[C@H](O[C@H]3[C@H](O)[C@@H](NC(C)=O)C(O)O[C@@H]3CO)O[C@@H]2CO)O[C@H](CO)[C@@H](O[C@@H]2O[C@H](CO)[C@@H](O[C@@H]3O[C@H](CO)[C@@H](O[C@@H]4O[C@H](CO)[C@@H](O)[C@H](O)[C@H]4NC(C)=O)[C@H](O)[C@H]3NC(C)=O)[C@H](O)[C@H]2NC(C)=O)[C@@H]1O` (stereo partly shown) [Chitohexaose], the K in experiment [1] is 13 ± 0.5 ×10^5 M^-1. Also, the ΔTm at 100 µM in experiment [2] was 7 °C. Moreover, in experiment [3], the ΔTm at 1000 µM came out at 8 °C.
The like results for `CC(=O)N[C@H]1[C@H](O[C@H]2[C@H](O)[C@@H](NC(C)=O)[C@H](O[C@H]3[C@H](O)[C@@H](NC(C)=O)C(O)O[C@@H]3CO)O[C@@H]2CO)O[C@H](CO)[C@@H](O[C@@H]2O[C@H](CO)[C@@H](O[C@@H]3O[C@H](CO)[C@@H](O)[C@H](O)[C@H]3NC(C)=O)[C@H](O)[C@H]2NC(C)=O)[C@@H]1O` (stereo partly shown) [Chitopentaose] were, in that order, 3.8 ± 0.2 ×10^5 M^-1, 5.7 °C and 6 °C.
Turning to `CC(=O)N[C@H]1[C@H](O[C@H]2[C@H](O)[C@@H](NC(C)=O)C(O)O[C@@H]2CO)O[C@H](CO)[C@@H](O[C@@H]2O[C@H](CO)[C@@H](O[C@@H]3O[C@H](CO)[C@@H](O)[C@H](O)[C@H]3NC(C)=O)[C@H](O)[C@H]2NC(C)=O)[C@@H]1O` (stereo partly shown) [Chitotetraose], the K in experiment [1] is recorded as 1.4 ± 0.01 ×10^5 M^-1. Besides, the thermal shift (ΔTm) at 100 µM in experiment [2] was determined as 3.8 °C. The ΔTm at 1000 µM in experiment [3] was determined as 5 °C.
With `CC(=O)N[C@H]1[C@H](O[C@H]2[C@H](O)[C@@H](NC(C)=O)C(O)O[C@@H]2CO)O[C@H](CO)[C@@H](O[C@@H]2O[C@H](CO)[C@@H](O)[C@H](O)[C@H]2NC(C)=O)[C@@H]1O` (stereo partly shown) [Chitotriose], the K in experiment [1] is reported as 0.5 ± 0.03 ×10^5 M^-1. Also, in experiment [2], the ΔTm at 100 µM was 3.2 °C. Further, the ΔTm at 1000 µM in experiment [3] was 4 °C.
As for `CC(=O)N[C@H]1C(O)O[C@H](CO)[C@@H](O)[C@@H]1O` (stereo partly drawn) [D-GlcNAc], the ΔTm at 1000 µM in experiment [3] was determined as 2 °C.
